Measured values published in US8884030B2, “Inhibitors of Flaviviridae viruses” (priority 2010, dated 2014).
Like-named read-outs stand apart in the source and are kept apart here.

Tested on: human hepatoma Huh-7 cell line harboring a HCV replicon
Test: HCV replicon assay (inhibition of viral replication, luciferase)
Format: cell-based
Settings: Hepatitis C virus, read-out: % inhibition at 2 μM
Outline: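 Huh-7 replicon cells (1600/well) exposed 3 days at 37 °C to 10-point 3-fold dilutions, 0.44% DMSO. Replication measured by Dual-Glo luciferase, background from ITMN-191 wells; cytotoxicity by calcein AM. EC50/CC50 from Hill fit; % inhibition at fixed concentration derivable from fit.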

[1] = 72 h, 2 μM, Huh-7 HCV replicon cells, 3 days incubation, inhibition of viral replication

| SMILES | inhibition at 2 µM [1] [%] | inhibition at 2 µM (Huh-7, 72 h) [%] |
| --- | --- | --- |
| CN([C@H]1CC[C@H](N(c2cc(C#CC(C)(C)C)sc2C(=O)O)C(=O)[C@H]2CC[C@H](C)CC2)CC1)S(=O)(=O)c1cccnc1 [Compound 164, 5-(3,3-dimethyl-but-1-ynyl)-3-((4-trans-methyl-cyclohexanecarbonyl)-{4-trans-[methyl-(pyridine-3-sulfonyl)-amino]-cyclohexyl}-amino)-thiophene-2-carboxylic acid] | 98.9 | – |
| CC(C)(C)C#Cc1cc(N(C(=O)[C@H]2CC[C@H](C)CC2)C2CCC(NS(=O)(=O)c3cccnc3)CC2)c(C(=O)O)s1 (stereo partly drawn) [Compound 165, 5-(3,3-dimethyl-but-1-ynyl)-3-{(4-trans-methyl-cyclohexanecarbonyl)-[4-(pyridine-3-sulfonylamino)-cyclohexyl]-amino}-thiophene-2-carboxylic acid] | 95.7 | – |
| CC1CCC(C(=O)N(c2cc(C#CC(C)(C)C)sc2C(=O)O)C2CCC(NC(=O)OC3CN(C(=O)OC(C)(C)C)C3)CC2)CC1 (centres unmarked) [Compound 186, 3-{4-[[2-carboxy-5-(3,3-dimethyl-but-1-ynyl)-thiophen-3-yl]-(4-methyl-cyclohexanecarbonyl)-amino]-cyclohexylcarbamoyloxy}-azetidine-1-carboxylic acid tert-butyl ester] | 98.9 | – |
| CC1CCC(C(=O)N(c2cc(C#CC(C)(C)C)sc2C(=O)O)C2CCC(NN(C)C(=O)OC3CCOCC3)CC2)CC1 (centres unmarked) [Compound 217, 5-(3,3-dimethyl-but-1-ynyl)-3-((4-methyl-cyclohexanecarbonyl)-{4-[N′-methyl-N′-(tetrahydro-pyran-4-yloxycarbonyl)-hydrazino]-cyclohexyl}-amino)-thiophene-2-carboxylic acid] | 100 | – |
| CC1CCC(C(=O)N(c2cc(C#CC(C)(C)C)sc2C(=O)O)C2CCC(NN(C)C(=O)Oc3ccccn3)CC2)CC1 (centres unmarked) [Compound 218, 5-(3,3-dimethyl-but-1-ynyl)-3-((4-methyl-cyclohexanecarbonyl)-{4-[N′-methyl-N′-(pyridin-2-yloxycarbonyl)-hydrazino]-cyclohexyl}-amino)-thiophene-2-carboxylic acid] | – | 100 |
